Measured values reported in the CheMixHub ionic liquid set.

Experiment: xn = mol fraction of the nth substance listed
Conditions: 101 kPa

Cc1ncc(C[n+]2csc(CCO)c2C)c(N)n1.Cl.[Cl-] + CCCCCCCCCCCCOS(=O)(=O)[O-].[Na+] + O
electrical conductivity [S/m]
Conditions	308.15 K	318.15 K
x2 = 0, x1 = 1.8e-07	0.00293	0.00286
x2 = 0, x1 = 9e-07	0.00544	0.00608
x2 = 0, x1 = 1.8e-06	0.00836	0.00964
x2 = 7.35e-06, x1 = 1.8e-07	0.00693	0.00698
x2 = 7.35e-06, x1 = 9e-07	0.00954	0.0104
x2 = 7.35e-06, x1 = 1.8e-06	0.0129	0.0147
x2 = 1.463e-05, x1 = 1.8e-07	0.0109	0.0112
x2 = 1.463e-05, x1 = 9e-07	0.0135	0.0145
x2 = 1.463e-05, x1 = 1.8e-06	0.0172	0.0195
x2 = 2.18e-05, x1 = 1.8e-07	0.0147	0.0153
x2 = 2.18e-05, x1 = 9e-07	0.0175	0.0186
x2 = 2.18e-05, x1 = 1.8e-06	0.0213	0.0241
x2 = 2.901e-05, x1 = 1.8e-07	0.0186	0.0195
x2 = 2.901e-05, x1 = 9e-07	0.0215	0.0226
x2 = 2.901e-05, x1 = 1.8e-06	0.0254	0.0286
x2 = 3.604e-05, x1 = 1.8e-07	0.0224	0.0235
x2 = 3.604e-05, x1 = 9e-07	0.0254	0.0266
x2 = 3.604e-05, x1 = 1.8e-06	0.0296	0.033
x2 = 4.307e-05, x1 = 1.8e-07	0.026	0.0276
x2 = 4.307e-05, x1 = 9e-07	0.0293	0.0306
x2 = 4.307e-05, x1 = 1.8e-06	0.0336	0.0375
x2 = 4.991e-05, x1 = 1.8e-07	0.0297	0.0315
x2 = 4.991e-05, x1 = 9e-07	0.0331	0.0346
x2 = 4.991e-05, x1 = 1.8e-06	0.0376	0.0417
x2 = 5.676e-05, x1 = 1.8e-07	0.0333	0.0355
x2 = 5.676e-05, x1 = 9e-07	0.0367	0.0386
x2 = 5.676e-05, x1 = 1.8e-06	0.0416	0.0458
x2 = 6.361e-05, x1 = 1.8e-07	0.037	0.0393
x2 = 6.361e-05, x1 = 9e-07	0.0404	0.0425
x2 = 6.361e-05, x1 = 1.8e-06	0.0455	0.0498
x2 = 7.027e-05, x1 = 1.8e-07	0.0405	0.043
x2 = 7.027e-05, x1 = 9e-07	0.0441	0.0464
x2 = 7.028e-05, x1 = 1.8e-06	0.0493	0.0537
x2 = 7.694e-05, x1 = 1.8e-07	0.044	0.0467
x2 = 7.694e-05, x1 = 9e-07	0.0477	0.0503
x2 = 7.694e-05, x1 = 1.8e-06	0.0529	0.0576
x2 = 8.361e-05, x1 = 1.8e-07	0.0473	0.0503
x2 = 8.361e-05, x1 = 9e-07	0.0513	0.0542
x2 = 8.361e-05, x1 = 1.8e-06	0.0564	0.0614
x2 = 9.009e-05, x1 = 1.8e-07	0.0507	0.0539
x2 = 9.009e-05, x1 = 9e-07	0.0547	0.058
x2 = 9.009e-05, x1 = 1.8e-06	0.0597	0.0651
x2 = 9.658e-05, x1 = 1.8e-07	0.054	0.0576
x2 = 9.658e-05, x1 = 9e-07	0.0581	0.0618
x2 = 9.658e-05, x1 = 1.8e-06	0.0627	0.0686
x2 = 0.0001031, x1 = 1.8e-07	0.0571	0.0611
x2 = 0.0001031, x1 = 9e-07	0.0612	0.0653
x2 = 0.0001031, x1 = 1.8e-06	0.0656	0.0721
x2 = 0.0001094, x1 = 1.8e-07	0.0601	0.0643
x2 = 0.0001094, x1 = 9e-07	0.0641	0.0687
x2 = 0.0001094, x1 = 1.8e-06	0.0684	0.0754
x2 = 0.0001157, x1 = 1.8e-07	0.0629	0.0676
x2 = 0.0001157, x1 = 9e-07	0.0668	0.0719
x2 = 0.0001157, x1 = 1.8e-06	0.071	0.0784
x2 = 0.000122, x1 = 1.8e-07	0.0658	0.0707
x2 = 0.000122, x1 = 9e-07	0.0696	0.075
x2 = 0.000122, x1 = 1.8e-06	0.0734	0.0813
x2 = 0.0001281, x1 = 1.8e-07	0.0684	0.0736
x2 = 0.0001281, x1 = 9e-07	0.0725	0.0777
x2 = 0.0001281, x1 = 1.8e-06	0.0755	0.0841
x2 = 0.0001342, x1 = 1.8e-07	0.0709	0.0764
x2 = 0.0001342, x1 = 9e-07	0.0746	0.0802
x2 = 0.0001342, x1 = 1.8e-06	0.0776	0.0868
x2 = 0.0001404, x1 = 1.8e-07	0.0732	0.079
x2 = 0.0001404, x1 = 9e-07	0.0766	0.0822
x2 = 0.0001404, x1 = 1.8e-06	0.0797	0.0894
x2 = 0.0001465, x1 = 1.8e-07	0.0752	0.0816
x2 = 0.0001465, x1 = 9e-07	0.0783	0.0841
x2 = 0.0001465, x1 = 1.8e-06	0.0817	0.0919
x2 = 0.0001524, x1 = 1.8e-07	0.077	0.0838
x2 = 0.0001524, x1 = 9e-07	0.08	0.086
x2 = 0.0001524, x1 = 1.8e-06	0.0836	0.0943
x2 = 0.0001584, x1 = 1.8e-07	0.0786	0.0858
x2 = 0.0001584, x1 = 9e-07	0.0816	0.0878
x2 = 0.0001584, x1 = 1.8e-06	0.0855	0.0962
x2 = 0.0001641, x1 = 1.8e-07	0.0802	0.0876
x2 = 0.0001641, x1 = 9e-07	0.0831	0.0895
x2 = 0.0001641, x1 = 1.8e-06	0.0874	0.0981
x2 = 0.0001699, x1 = 1.8e-07	0.0817	0.0893
x2 = 0.0001699, x1 = 9e-07	0.0846	0.0911
x2 = 0.0001699, x1 = 1.8e-06	0.0893	0.1
x2 = 0.0001757, x1 = 1.8e-07	0.083	0.0909
x2 = 0.0001757, x1 = 9e-07	0.086	0.0927
x2 = 0.0001757, x1 = 1.8e-06	0.091	0.102
x2 = 0.0001814, x1 = 1.8e-07	0.0843	0.0924
x2 = 0.0001814, x1 = 9e-07	0.0874	0.0943
x2 = 0.0001814, x1 = 1.8e-06	0.0928	0.104
x2 = 0.000187, x1 = 1.8e-07	0.0855	0.0939
x2 = 0.000187, x1 = 9e-07	0.0887	0.0957
x2 = 0.000187, x1 = 1.8e-06	0.0946	0.106
x2 = 0.0001928, x1 = 1.8e-07	0.0867	0.0952
x2 = 0.0001928, x1 = 9e-07	0.09	0.0974
x2 = 0.0001928, x1 = 1.8e-06	0.0964	0.107
x2 = 0.0001982, x1 = 1.8e-07	0.0879	0.0966
x2 = 0.0001982, x1 = 9e-07	0.0912	0.0991
x2 = 0.0001982, x1 = 1.8e-06	0.0982	0.109
x2 = 0.0002038, x1 = 1.8e-07	0.089	0.0979
x2 = 0.0002038, x1 = 9e-07	0.0924	0.101
x2 = 0.0002038, x1 = 1.8e-06	0.0997	0.111
x2 = 0.0002092, x1 = 1.8e-07	0.0901	0.0992
x2 = 0.0002092, x1 = 9e-07	0.0936	0.102
x2 = 0.0002092, x1 = 1.8e-06	0.101	0.112
x2 = 0.0002147, x1 = 1.8e-07	0.0913	0.1
x2 = 0.0002148, x1 = 9e-07	0.0949	0.104
x2 = 0.0002148, x1 = 1.8e-06	0.102	0.114
x2 = 0.00022, x1 = 1.8e-07	0.0925	0.102
x2 = 0.00022, x1 = 9e-07	0.0961	0.105
x2 = 0.00022, x1 = 1.8e-06	0.104	0.115
x2 = 0.0002254, x1 = 1.8e-07	0.0937	0.103
x2 = 0.0002254, x1 = 9e-07	0.0974	0.107
x2 = 0.0002254, x1 = 1.8e-06	0.105	0.116
x2 = 0.0002306, x1 = 1.8e-07	0.0949	0.104
x2 = 0.0002306, x1 = 9e-07	0.0986	0.108
x2 = 0.0002306, x1 = 1.8e-06	0.106	0.117
x2 = 0.0002358, x1 = 1.8e-07	0.0962	0.105
x2 = 0.0002358, x1 = 9e-07	0.0998	0.109
x2 = 0.0002358, x1 = 1.8e-06	0.107	0.119
x2 = 0.0002411, x1 = 1.8e-07	0.0973	0.106
x2 = 0.0002411, x1 = 9e-07	0.101	0.111
x2 = 0.0002411, x1 = 1.8e-06	0.108	0.12
